According to PMC8308845, “Discovery of Novel Chemical Series of OXA-48 β-Lactamase Inhibitors by High-Throughput Screening” (Pharmaceuticals, 2021):

What was measured:
OXA-48 [1] = molecular target: T1, OXA-48 (Klebsiella pneumoniae, UniProt Q6XEC0); experiment: OXA-48 primary enzymatic assay (nitrocefin substrate, fluorescence-quenching readout); type: biochemical; details: dose–response, median of triplicate wells; 15 min preincubation, 25 µM nitrocefin
T1 construct: made in house; host or cells: E. coli BL21(DE3), T7 expression system
T1 sequence (Q6XEC0 23-265, looked up): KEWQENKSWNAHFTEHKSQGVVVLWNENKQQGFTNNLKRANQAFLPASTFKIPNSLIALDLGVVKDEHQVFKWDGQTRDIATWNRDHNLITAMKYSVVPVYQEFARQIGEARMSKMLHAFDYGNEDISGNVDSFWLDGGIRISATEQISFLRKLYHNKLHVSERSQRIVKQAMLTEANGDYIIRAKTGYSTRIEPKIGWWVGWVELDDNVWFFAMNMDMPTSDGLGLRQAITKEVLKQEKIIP
Experimental: After an initial pilot run (three plates, consisting of 960 randomly selected compounds), the primary screening of the subset plates was carried out at 20 µM in single point against OXA-48 enzyme in a nitrocefin-based assay, using the fluorescence-quenching readout. This enzymatic assay employs the cephalosporin nitrocefin as OXA-48 substrate and takes advantage of the fluorescent properties of white microtiter plates. Chromogenic nitrocefin is hydrolyzed by β-lactamases to yield a product with increased absorbance properties (~495 nm) that quenches the plate fluorescence by absorbing the plate’s emission light. In this assay, test compounds that inhibit OXA-48 catalytic activity are predicted to reduce nitrocefin quenching of plate fluorescence, resulting in a quantitative increase in well fluorescence (ON-system for inhibitors). The nitrocefin-based epi-absorbance readout system has been successfully applied in HTS campaigns on other β-lactamases, such as IMP-1 and VIM-2, with the identification of inhibitors belonging to novel scaffolds displaying a favourable degree of selectivity and sub-micromolar potency.
The screening results were expressed as activity percent. […] Overall, the primary assay robustness was good, with Robust Z Prime factor (RZ′) equal to 0.86.
In total, 256 active molecules (125 from the subset and 131 from the full set) were then assayed in dose–response at eight concentrations from 60 to 0.002 µM with interplate triplicate data points.
The blaOXA gene coding for the OXA-48 ß-lactamase, originally cloned from the K. pneumonia 11978 (a clinical isolate from Istanbul Faculty Hospital, Istanbul, Turkey) was overexpressed via a T7 expression system in E. coli BL21(DE3), and its product, native protein, (final yield of 30 mg/L of culture) was subjected to several purification steps, including ion-exchange chromatography with Q-Sepharose and 20 mM Tris-HCl buffer (pH 9.0), followed by chromatography with S-Sepharose columns and 100 mM sodium phosphate buffer (pH 5.8). Elution of the beta-lactamase was performed with a K2SO4 gradient. Peaks of beta-lactamase activity were concentrated and were dialyzed with 100 mM phosphate buffer (pH 7.0). The OXA-48 enzyme was purified to homogeneity (with a degree of purity around 95.4%.)-as measured by 12% SDS PAGE [23]. OXA-48 protein stock solution (2 mg/mL) was finally prepared in 20 mM Hepes (pH 8,1). OXA-48 β-lactamase specific activity was measured by following the hydrolysis of 100 μM nitrocefin (ε: 17,000 M-1 cm^−1 at 482 nm; Δε: 15,000 M-1 cm^−1 at 482 nm) and corresponding to 60.45 μmoles min^−1 mg^−1 of OXA-48 (kcat = 28.85 s^−1) enzyme. A MW of 28,147 g/mol, calculated from the enzyme sequence was confirmed by MALDI-TOF analysis with a Mass error of ± 2.8 Da.
The primary assay was developed to monitor the enzymatic activity of OXA-48 taking advantage of the spectroscopic properties of white microtiter plates (Optiplate-384, PerkinElmer, #6007290), as indicated by Zuck et al.. Nitrocefin is chromogenic substrate for beta-lactamases with λmax = 395 nm (yellow). Upon hydrolysis by OXA-48, nitrocefin yields (2R)-2-[(R)-carboxy[2-(thiophen-2-yl)acetamido]methyl]-5-[(E)-2-(2,4-dinitrophenyl)ethenyl]-3,6-dihydro-2H-1,3-thiazine-4-carboxylic acid, with increased absorbance properties at λmax = 495 nm. Spectroscopic features of the reaction product are exploited to quench the plate intrinsic fluorescence by absorbing the plate’s emission light, which can be monitored by exciting the reaction at 485 nm and recording the emission at 520 nm. Therefore, the primary assay for HTS was an ON-assay, in which compounds targeting OXA-48 were predicted to elicit an increase of the fluorescence signal.
The primary assay was performed in reaction buffer (20 mM Hepes pH 8.0, 12.5 mM NaCl, 0.005% BSA, 0.0005% Brij-35) in the presence of 0.0014 ng/µL OXA-48 and 25 µM nitrocefin in a final volume of 20 µL/well in 384 MTP format. […]

OXA-48 [2] = molecular target: T1, OXA-48; experiment: Time-dependent inhibition of OXA-48; type: biochemical; details: for dependence of AC50 on preincubation time with OXA-48: preincubation 0, 15, 30, 60, 90, 120, 180, 240 min
Experimental: On this basis, compounds ID1 and ID2 as well as the irreversible reference inhibitor tazobactam were tested in dose–response against OXA-48 lactamase, by pre-incubating the compounds with the enzyme at different time points (0, 15, 30, 60, 90, 120, 180, 240 min) before starting the reaction upon addition of the nitrocefin substrate.
Experimental conditions were identical to the ones applied for the primary assay for HTS: 20 μL of 2X compounds with 1% DMSO; 10 μL 4X enzyme (0.0014 ng/µL OXA-48 final concentration) were dispensed into preincubation plate. The reaction buffer was: 20 mM Hepes pH 8.0, 12.5 mM NaCl, 0.005% BSA-pf, 0.0005% Brij-35.
Preincubation time was for a period spanning from 0 up to 240′ at rt between enzyme and compounds and for 15′ at rt between enzyme and control wells. The reactions were started by transferring of 15 μL of enzyme-compounds or enzyme-control from preincubation plate into assay plate adding 5 μL 4X nitrocefin substrate (25 µM final concentration) at different time points, at 0 (i.e., no preincubation)–15–30–60–90–120–180–240 min of preincubation between OXA-48 and compounds. Reading was at PHERAstar (BMG Labtechnologies), in kinetic for up to 60′ (λex: 485 nm; λem: 520 nm). Data were analyzed to determine the respective AC50 values obtained at all the tested preincubation time points.
b. If the AC50 value was inversely proportional to the preincubation time with OXA-48, the compound was assigned as non-reversible inhibitor.

AC50 after preincubation relative to AC50 without preincubation (OXA-48 [2]; plateau after 90 min of preincubation)	Compound	AC50 (OXA-48 [1]) [nM]	dependence of AC50 on preincubation time with OXA-48 (OXA-48 [2])
–	O=C(O)c1ccc(C=Nn2c(S)nnc2-c2ccccc2)cc1 [ID1]	1140	independent on the preincubation time
–	CCc1ccc(-c2n[nH]c3nc(-c4ccc(C(=O)O)cc4)cc(C(=O)O)c23)cc1 [ID2]	990	independent on the preincubation time
almost six-fold lower	C[C@]1(Cn2ccnn2)[C@H](C(=O)O)N2C(=O)C[C@H]2S1(=O)=O [tazobactam, reference compound]	840	inversely proportional time-dependent inhibition
